The results in this text go back to patent US20100310542A1, “Pharmaceutical Compositions for treating wouds and related methods” (HEALOR LTD., priority 2007, published 2010).

The test system of assay [1] is primary murine keratinocytes. Kind of assay: cell proliferation by [3H]thymidine incorporation. The following applies: insulin 0.1 units/ml. It is filed as cell-based. The protocol:
Cell proliferation: Cell proliferation was measured by [^3H]thymidine incorporation in 6 well plates. Cells were pulsed with [^3H]thymidine (3 μCi/ml) for 1 h. After incubation, cells were washed five times with PBS and 5% TCA was added into each well for 1 h. The solution was removed and cells were solubilized in 1 M NaOH. The labeled thymidine incorporated into cells was counted in a ^3H-window of TRI-CARB™ liquid scintillation counter.
Next, proliferation of cultured cells in the wound was evaluated utilizing thymidine incorporation (FIG. 6C). Cell proliferation was measured by [^3H]thymidine incorporation in 6 well plates. Cells were placed in […] and pulsed with [^3H]thymidine (3 μCi/ml) for 1 h. After incubation, cells were washed five times with PBS and 5% TCA was added to each well for 1 h. This solution was then removed and cells were solubilized in 1 M NaOH. The labeled thymidine incorporated into the cells was counted in the ^3H-window of a liquid scintillation counter. As shown in FIGS. 6A-C the addition of KCl changed insulin induced wound closure and cell proliferation.
Cultures of 5 day old, confluent keratinocytes were subjected to in vitro scratch assays and wound healing was examined. Following wound formation, Insulin (10^−6 M; 0.1 units/ml) was added to cell cultures in the various formulations (Formulation C and D) as described above. […]

In assay [2] the test system is primary murine keratinocytes. Kind of assay: in vitro scratch assay, wound closure with insulin in Formulation C and D. It is filed as cell-based. The following applies: insulin 0.1 units/ml, 48 hours. As to the method:
Murine keratinocytes were isolated and cultured as described above. After five days, confluent keratinocytes were subjected in vitro scratch assays to follow wound healing. Following wound formation Insulin (insulin 10^−6 M; 0.1 units/ml) was added to the cell cultures in the various formulations (Formulation C and D) described above. Wound closure was followed for 48 hours. This experiment was carried out in triplicate. Wound closure is presented as the percent of closure following 48 hours of treatment in FIG. 6B.
Cultures of 5 day old, confluent keratinocytes were subjected to in vitro scratch assays and wound healing was examined. Following wound formation, Insulin (10^−6 M; 0.1 units/ml) was added to cell cultures in the various formulations (Formulation C and D) as described above. Wound closure was followed for 48 hours. Experiments were carried out in triplicate. (A) Photographs of representative cell culture dishes are presented. (B) Wound closure is presented as percent of closure following 48 hours of treatment. (C) Proliferation assays were performed on cultured cells in the wound using the thymidine incorporation proliferation assay described above.

In assay [3] the test system is keratinocytes from the tails of adult mice. Kind of assay: cell proliferation, Rapid Cell Proliferation Kit, pre-incubation in medium B. The following applies: pre-incubation of cells in medium B for 24 hours vs treatment parallel to medium change. The format is cell-based. The protocol: Medium A and B are both EMEM eagle's minimal essential medium from Biological Industries (Israel) containing 8% CHELEX™ treated fetal bovine serum. CHELEX™ is a strong chelator which binds free Ca^2+ and Mg^2+ ions to prevent these ions from being bioavailable to the cultured cells. […] The influence of pre-incubation of keratinocytes in medium B on the effects of Insulin and Insulin+PKCα inhibitor on cell proliferation in vitro was evaluated. Cultures of 5 day old, confluent keratinocytes from the tails of adult mice (7-10 months up to 2 years) were allowed to proliferate in vitro. After 5 days in MEM (medium A), the growth medium was changed to medium B (described above). Parallel to the medium changing or 24 hours following it, cells were treated with Insulin or with Insulin+PKCα inhibitor. The proliferation rate of the cells was measured with the commercially available Rapid Cell Proliferation Kit (Cat. No. QIA127; Calbiochem). The Experiment was carried out in hexaplicate. Results are presented as percent of untreated cells (control). […] Cultures of 5 day old, confluent keratinocytes prepared from the tails of adult mice (7-10 months up to 2 years) were subjected to proliferation assays utilizing a commercially available Rapid Cell Proliferation Kit (Cat. No. QIA127; Calbiochem). After 5 days in MEM, the growth medium was changed to medium B as described above. […]

Assay [4] has as its system full thickness skin incisions. In words: incision wound healing in mice, percent of healed wounds. The format is in vivo, C57BL/6J mice. The note with it: agent alone, all formulations (A-C); daily, 7 days; vs groups treated with formulations alone. As to the method: In vivo incision wound generation and inducement of inflammation: Full thickness (20 mm long) skin incisions were performed on the upper back of anesthetized C57BL/6J mice (6 mice per group). […] the incision, wounds were treated daily with insulin (10^−6 M; 0.1 units/ml); pseudosubstrate PKCα peptide, 1 μM (PKCα inhibitor); or Insulin+PKCα inhibitor (Myr-pseudosubstrate PKCα peptide, 1 μM and insulin 0.1 units) applied directly on the wounds in the various formulations (Formulations A-C) as described above. After 7 days, wounds were excised and the percentage of healed wounds was evaluated by examining the morphology and histology of the wounds. Results are presented as percent of healed wounds relative to the total number of wounds per group. […] Full thickness (20 mm long) skin incisions were performed on the upper back of anesthetized C57BL/6J mice (6 mice per group). […] After 7 days, wounds were excised and the percentage of healed wounds was evaluated by examining the morphology and histology of the wounds. […]

[5] abbreviates: Formulation D (Tris + KCl 0.4 mg/ml).

Take “Insulin: human recombinant insulin, identified as insulin, USP insulin or Ins USP”: the “cell proliferation (thymidine incorporation)” value in assay [1] (Formulation C (Tris)) was “inhibited insulin induced wound closure and cell proliferation”; in assay [1] (setting [5]), “induced partial wound closure and cell proliferation”. The “wound closure in vitro” value in assay [2] (Formulation C (Tris)) is on record as “inhibited insulin induced wound closure”; in assay [2] (setting [5]), “induced partial wound closure”. Besides, the “effect on cell proliferation (percent of untreated cells)” value in assay [3] is “enhances the effects”. For the same substance, in assay [4], the “healing of wounds (percent of healed wounds)” value is on record as “did not promote wound healing efficacy”.
